In assay [1] the test system is YAP nuclear translocation in HaCaT cells. The assay is described as follows: YAP Translocation Assay (HaCaT Cells). It is filed as cell-based, human. Conditions: Homo sapiens, 24 hours. The method, then: HaCaT cells were suspended at 0.4×10^6 cells/ml in DMEM+10% FBS with penicillin-streptomycin-glutamine. 50 μl of cells were dispensed into 384-well clear bottom assay plates (20,000 cells/well), and incubated overnight at 37° C. 100 nL test compound was transferred into the assay wells containing HaCaT cells using ECHO (Labcyte). After 24 hours incubation at 37° C., 7 μL of 32% PFA was dispensed into each well and incubated for 45 minutes at room temperature. Plates were washed 3 times with PBS, leaving 20 μL of PBS per well, then treated with 0.1% Triton and 1.5% BSA in PBS for 45 minutes at room temperature. Plates were washed for 5 times with PBS, leaving 20 μL of PBS per well. […] Plates were further washed 3 time with PBS, sealed and imaged on the high-content Opera imaging system (PerkinElmer).

Assay [2] addresses LATS1 (Homo sapiens (Human), UniProt O95835). The assay is described as follows: LATS1 biochemical assay (Table 1A, Compound Examples 1-290; method in the earlier part).

The structures appear in SMILES notation.

These results are taken from patent US11458138B2 (Novartis AG, priority 2017, dated 2022).

The term EC50 denotes the concentration at which the effect is half-maximal. What is called IC50 is the midpoint of a concentration-inhibition curve.

Sequence of LATS1 (O95835 whole entry, looked up): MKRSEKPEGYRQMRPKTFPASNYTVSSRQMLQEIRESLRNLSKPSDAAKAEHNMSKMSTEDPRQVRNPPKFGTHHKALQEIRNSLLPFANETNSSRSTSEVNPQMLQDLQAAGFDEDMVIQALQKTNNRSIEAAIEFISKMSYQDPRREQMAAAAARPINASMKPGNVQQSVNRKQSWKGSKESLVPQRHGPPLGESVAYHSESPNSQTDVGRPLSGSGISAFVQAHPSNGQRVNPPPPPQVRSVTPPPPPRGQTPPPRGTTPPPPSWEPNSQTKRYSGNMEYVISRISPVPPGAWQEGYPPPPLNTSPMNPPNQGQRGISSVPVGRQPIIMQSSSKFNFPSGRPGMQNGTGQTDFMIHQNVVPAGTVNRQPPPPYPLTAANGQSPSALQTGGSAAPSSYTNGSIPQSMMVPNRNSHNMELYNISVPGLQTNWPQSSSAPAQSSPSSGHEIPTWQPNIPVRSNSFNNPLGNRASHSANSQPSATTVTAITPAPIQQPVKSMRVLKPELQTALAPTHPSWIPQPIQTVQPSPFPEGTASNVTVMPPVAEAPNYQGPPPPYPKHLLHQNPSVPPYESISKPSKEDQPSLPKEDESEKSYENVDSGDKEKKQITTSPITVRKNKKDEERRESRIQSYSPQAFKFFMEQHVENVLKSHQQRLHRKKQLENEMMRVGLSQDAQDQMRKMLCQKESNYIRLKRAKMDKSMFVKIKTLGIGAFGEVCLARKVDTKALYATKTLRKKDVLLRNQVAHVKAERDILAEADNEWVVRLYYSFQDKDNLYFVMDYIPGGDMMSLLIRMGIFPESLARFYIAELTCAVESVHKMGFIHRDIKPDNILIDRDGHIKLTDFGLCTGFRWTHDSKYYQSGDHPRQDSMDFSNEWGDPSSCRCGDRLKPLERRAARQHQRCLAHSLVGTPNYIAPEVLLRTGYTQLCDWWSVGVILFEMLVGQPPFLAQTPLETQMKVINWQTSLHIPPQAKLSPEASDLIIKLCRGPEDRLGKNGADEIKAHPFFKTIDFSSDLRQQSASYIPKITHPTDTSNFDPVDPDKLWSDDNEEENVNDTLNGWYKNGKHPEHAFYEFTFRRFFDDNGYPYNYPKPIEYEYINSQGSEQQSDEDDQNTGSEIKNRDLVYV
Sequence of LATS1 (Q7L9L4 whole entry partner, looked up): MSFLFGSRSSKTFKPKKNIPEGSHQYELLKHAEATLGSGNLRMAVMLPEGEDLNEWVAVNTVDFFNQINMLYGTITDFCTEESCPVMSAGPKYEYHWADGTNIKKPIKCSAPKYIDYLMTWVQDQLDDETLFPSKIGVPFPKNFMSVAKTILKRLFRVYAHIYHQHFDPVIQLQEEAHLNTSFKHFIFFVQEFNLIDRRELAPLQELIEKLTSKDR

`CC(C)(O)COCC(C)(C)Nc1nc(-c2c[nH]nc2C(F)(F)F)nc2cnccc12` [Example 121, 2-methyl-1-[2-methyl-2-({2-[3-(trifluoromethyl)-1H-pyrazol-4-yl]pyrido[3,4-d]pyrimidin-4-yl}amino)propoxy]propan-2-ol] displayed a concentration giving a half-maximal response (EC50) in assay [1] of 8170 nM. In assay [2], this compound registered an IC50 of 14 nM.
The matching figures for `CC(C)(O)COCC(C)(C)Nc1nc(-c2ccncc2Cl)nc2cnccc12` [Example 127, 1-(2-{[2-(3-chloropyridin-4-yl)pyrido[3,4-d]pyrimidin-4-yl]amino}-2-methylpropoxy)-2-methylpropan-2-ol]: greater than 20000 nM and 55 nM.
On the same counts, the results for `C[C@](Nc1nc(-c2ccncc2)nc2cnccc12)(C(=O)O)C(F)(F)F` [Example 29, (2S)-3,3,3-trifluoro-2-methyl-2-{[2-(pyridin-4-yl)pyrido[3,4-d]pyrimidin-4-yl]amino}propanoic acid] are greater than 20000 nM and 36 nM.
On the same counts, the results for `CCN(CC)c1cc(-c2ccncc2)nc2cnccc12` [Example 266, N,N-diethyl-2-(pyridin-4-yl)-1,7-naphthyridin-4-amine] are 5350 nM and 9 nM.
In assay [1], `Cc1cc(-c2nc(NC3(C)CC3)c3ccncc3n2)on1` [Example 181, 2-(3-methyl-1,2-oxazol-5-yl)-N-(1-methylcyclopropyl)pyrido[3,4-d]pyrimidin-4-amine] came in with an EC50 greater than 10000 nM. Further, the IC50 in assay [2] amounted to 9000 nM.
The matching figures for `CC1(Nc2nc(-c3ccnc(F)c3F)nc3cnccc23)CC1` [Example 148, 2-(2,3-difluoropyridin-4-yl)-N-(1-methylcyclopropyl)pyrido[3,4-d]pyrimidin-4-amine]: greater than 20000 nM and 168 nM.
On the same counts, the results for `Cc1cnccc1-c1nc(N(C)C(C)C)c2ccncc2n1` [Example 128, N-methyl-2-(3-methylpyridin-4-yl)-N-(propan-2-yl)pyrido[3,4-d]pyrimidin-4-amine] are greater than 20000 nM and 77 nM.
`CN[C@@H]1CCCC[C@H]1N(C)c1nc(-c2ccncc2)nc2cnccc12` [Example 53, (1R,2R)-1-N,2-N-dimethyl-1-N-[2-(pyridin-4-yl)pyrido[3,4-d]pyrimidin-4-yl]cyclohexane-1,2-diamine] displayed an EC50 in assay [1] greater than 20000 nM. In addition, in assay [2], the half-maximal inhibitory concentration (IC50) was found to be 40 nM.
The matching figures for `Cc1ccc(Nc2nc(-c3ccncc3)nc3cnccc23)cc1` [Example 90, N-(4-methylphenyl)-2-(pyridin-4-yl)pyrido[3,4-d]pyrimidin-4-amine]: greater than 20000 nM and 126 nM.
On the same counts, the results for `CC(CO)(Nc1nc(-c2ccncc2)nc2cnccc12)C(F)(F)F` (centres unmarked) [Example 67, 3,3,3-trifluoro-2-methyl-2-{[2-(pyridin-4-yl)pyrido[3,4-d]pyrimidin-4-yl]amino}propan-1-ol] are 685 nM and 2 nM.
On the same counts, the results for `CC(C)(C)Nc1cc(-c2ccncc2Cl)nc2cnccc12` [Example 285, N-tert-butyl-2-(3-chloropyridin-4-yl)-1,7-naphthyridin-4-amine] are greater than 20000 nM and 190 nM.
`C[C@@](Nc1nc(-c2ccncc2)nc2cnccc12)(C(=O)O)C(F)(F)F` [Example 31, (2R)-3,3,3-trifluoro-2-methyl-2-{[2-(pyridin-4-yl)pyrido[3,4-d]pyrimidin-4-yl]amino}propanoic acid]: the EC50 in assay [1] was greater than 20000 nM. For the same compound, in assay [2], the half-maximal inhibitory concentration (IC50) was found to be 41 nM.
The matching figures for `C[C@@H](Nc1nc(-c2cn[nH]c2)nc2cnccc12)c1ccccc1` [Example 167, N-[(1R)-1-phenylethyl]-2-(1H-pyrazol-4-yl)pyrido[3,4-d]pyrimidin-4-amine]: greater than 20000 nM and 143 nM.
`CC(C)(O)CC(C)(C)Nc1nc(-c2c[nH]nc2C(F)(F)F)nc2cnccc12` [Example 119, 2,4-dimethyl-4-({2-[3-(trifluoromethyl)-1H-pyrazol-4-yl]pyrido[3,4-d]pyrimidin-4-yl}amino)pentan-2-ol] had an EC50 in assay [1] of 5180 nM. The same compound gave an IC50 in assay [2] of 9 nM.
Regarding `COC(=O)[C@H]1C[C@@H](Nc2nc(-c3ccncc3)nc3cnccc23)C1` [Example 54, methyl (1s,3s)-3-{[2-(pyridin-4-yl)pyrido[3,4-d]pyrimidin-4-yl]amino}cyclobutane-1-carboxylate], in assay [1], the EC50 is greater than 20000 nM. The compound also came in with an IC50 in assay [2] of 78 nM.
The matching figures for `Cc1c(-c2nc(NC(C)(C)C)c3ccncc3n2)c2cccnc2n1S(=O)(=O)c1ccccc1` [Example 113, 2-[1-(benzenesulfonyl)-2-methyl-1H-pyrrolo[2,3-b]pyridin-3-yl]-N-tert-butylpyrido[3,4-d]pyrimidin-4-amine]: greater than 20000 nM and 235 nM.
The matching figures for `CC(Nc1nc(-c2cn[nH]c2)nc2cnccc12)c1ccncc1` (centres unmarked) [Example 183, 2-(1H-pyrazol-4-yl)-N-[1-(pyridin-4-yl)ethyl]pyrido[3,4-d]pyrimidin-4-amine]: greater than 20000 nM and 797 nM.
Compound `CC(C)(CS(C)(=O)=O)Nc1nc(-c2ccncc2)nc2cnccc12` [Example 28, N-(1-methanesulfonyl-2-methylpropan-2-yl)-2-(pyridin-4-yl)pyrido[3,4-d]pyrimidin-4-amine] came in with an EC50 in assay [1] greater than 20000 nM. For the same compound, the IC50 in assay [2] came to 36 nM.
Consider `OCCC(Nc1nc(-c2ccncc2)nc2cnccc12)C(F)(F)F` (centres unmarked) [Example 27, 4,4,4-trifluoro-3-{[2-(pyridin-4-yl)pyrido[3,4-d]pyrimidin-4-yl]amino}butan-1-ol], for which, in assay [1], the 50% effective concentration (EC50) is greater than 14400 nM. Further, half-maximal inhibition in assay [2] (IC50) was put at 35 nM.
The matching figures for `Cc1n[nH]cc1-c1nc(NC2(CO)CCC2)c2ccncc2n1` [Example 185, (1-{[2-(3-methyl-1H-pyrazol-4-yl)pyrido[3,4-d]pyrimidin-4-yl]amino}cyclobutyl)methanol]: 11500 nM and 9 nM.
The matching figures for `OCCOCCNc1nc(-c2ccncc2)nc2cnccc12` [Example 35, 2-(2-{[2-(pyridin-4-yl)pyrido[3,4-d]pyrimidin-4-yl]amino}ethoxy)ethan-1-ol]: greater than 20000 nM and 118 nM.
Regarding `CN(C)C1(CNc2nc(-c3ccncc3)nc3cnccc23)CCOCC1` [Example 39, N-{[4-(dimethylamino)oxan-4-yl]methyl}-2-(pyridin-4-yl)pyrido[3,4-d]pyrimidin-4-amine], in assay [1], the EC50 was greater than 11600 nM. Besides, in assay [2], the 50% inhibitory concentration (IC50) stood at 244 nM.
On to `Fc1cnccc1-c1cc(N2CCCCC2)c2ccncc2n1` [Example 278, 2-(3-fluoropyridin-4-yl)-4-(piperidin-1-yl)-1,7-naphthyridine], for which the EC50 in assay [1] was greater than 20000 nM. The compound further showed an IC50 in assay [2] of 90 nM.
Take `CCCNc1nc(-c2ccncc2C)nc2cnccc12` [Example 164, 2-(3-methylpyridin-4-yl)-N-propylpyrido[3,4-d]pyrimidin-4-amine]: the concentration for a half-maximal effect (EC50) in assay [1] is greater than 20000 nM. For the same compound, half-maximal inhibition in assay [2] (IC50) was put at 159 nM.
The matching figures for `CC1(Nc2nc(-c3cnoc3)nc3cnccc23)CC1` [Example 152, N-(1-methylcyclopropyl)-2-(1,2-oxazol-4-yl)pyrido[3,4-d]pyrimidin-4-amine]: greater than 20000 nM and greater than 2500 nM.
